# Measurements: patent US8039505B2, “Compounds for modulating T-cells” (University of Utah Research Foundation, priority 2007, dated 2011)
# System: T cells from the thymus of lck::eGFP transgenic zebrafish
# Assay: Screen for T cell ablation in lck::eGFP transgenic zebrafish larvae
# Type: in vivo
# Method: FIG. 4 is a schematic of the experimental set-up of drug screen using DIVERSet small molecule library and lck-GFP transgenic zebrafish. Beginning at the top of the figure, three day 6 pf transgenic larvae are arrayed in 300 μL of E3 embryos water into each of the 96 wells of a round bottom tissue culture plate (except G1, H1, G12, H12). Controls are added in triplicate: DMSO (A1-C1), E3 (D1-F1), dexamethasone 25 μM (A12-C12), and methanol (D12-F12). Then, five compounds from the DIVERSet library are added to each well at a final concentration of 5 μM. Plates are incubated at […] for 48 hours, and are inspected by fluorescence microscopy at 24 and 48 hours. […] Compounds from wells identified as active are tested individually in triplicates. One of the five compounds that is active in all three wells is identified and is worked up further (left side).
# To extend the versatility of the system, a transgenic line of zebrafish was generated; in this line all T cells are tagged with green fluorescent protein (GFP). GFP is driven by the T cell specific p56^lck promoter (Langenau et al., Proc Natl Acad Sci USA 101:7369-7374, 2004).
# Based on the above observation that zebrafish T cells can be killed by the small molecule dexamethasone (MW 392) (Langenau et al., Proc Natl Acad Sci USA 101:7369-7374, 2004) a screen for novel compounds with a similar T cell ablative profile was performed. […]
smiles,measurement,value
"C(=NNc1cccc2cccnc12)c1c[nH]c2ccccc12 [Compound C3, 1H-indole-3-carbaldehyde quinolin-8-ylhydrazone]",Activity in vivo (active concentration),3 µM
